Key:
[1] = tested on: PC3; assay: MTT chemosensitivity assay, PC3; type: cell-based, human; conditions: Homo sapiens, PC-3, 96 h exposure, ± SD, at least three independent experiments
Protocol: (§1) MTT (3-(4, 5-dimethyl-2-thiazolyl)-2, 5-diphenyl-2H-tetrazolium bromide) assay was used to determine cell viability.[64] Immortalized PCa cells (PC-3, Du-145, and LNCaP) were seeded in 96-well plates and allowed to adhere overnight at 37 °C, 5% CO2, and 100% humidity. […] After 96 h of exposure, 200 μL of MTT (Sigma) solution (0.5 mg/mL) was added to each well and incubated at 37 °C for 4 h. The formazan crystals were dissolved in DMSO (Sigma), and the absorbance was read using a microplate reader (Multiskan EX; Thermo Fisher Scientific) at 540 nm. Data analysis was performed using Microsoft Excel 2013 and GraphPad Prism software.

[2] = tested on: DU145; assay: MTT chemosensitivity assay, DU145; type: cell-based, human; conditions: Homo sapiens, DU-145, 96 h exposure, ± SD, at least three independent experiments
Protocol: as §1

[3] = tested on: LNCaP; assay: MTT chemosensitivity assay, LNCaP; type: cell-based, human; conditions: Homo sapiens, LNCaP, 96 h exposure, ± SD, at least three independent experiments
Protocol: as §1

[4] = target: T1, Human ALDH1A1 (Homo sapiens, UniProt P00352); assay: Inhibition screening, single point at 10 μM, ALDH1A1; type: biochemical; conditions: 10 μM compound; 5 μM hexanal (Figure S1)
T1 construct: made in house
T1 sequence (P00352 1-501): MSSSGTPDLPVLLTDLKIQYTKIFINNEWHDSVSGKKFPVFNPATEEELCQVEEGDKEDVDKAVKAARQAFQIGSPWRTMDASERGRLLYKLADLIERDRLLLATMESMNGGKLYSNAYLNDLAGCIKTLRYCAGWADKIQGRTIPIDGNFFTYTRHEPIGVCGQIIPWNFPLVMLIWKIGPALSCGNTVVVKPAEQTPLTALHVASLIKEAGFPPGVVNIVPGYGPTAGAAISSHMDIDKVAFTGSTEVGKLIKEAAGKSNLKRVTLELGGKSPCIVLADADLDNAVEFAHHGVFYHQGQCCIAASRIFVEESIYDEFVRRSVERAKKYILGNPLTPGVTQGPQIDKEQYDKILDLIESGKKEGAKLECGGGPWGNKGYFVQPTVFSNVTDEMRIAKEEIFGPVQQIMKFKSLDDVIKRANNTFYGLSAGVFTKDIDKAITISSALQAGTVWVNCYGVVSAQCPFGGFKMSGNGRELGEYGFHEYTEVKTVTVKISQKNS
Protocol: (§2) Human ALDH1A1, ALDH1A3, and ALDH3A1 were cloned and recombinantly expressed from the pET-30 Xa/LIC vector. Protein purification was achieved by affinity chromatography on a nickel-charged chelating Sepharose Fast Flow 5-mL column (His Trap column, Cytiva), which specifically binds the protein due to its N-terminal (His)6 tag, using an ÄKTA FPLC system (Cytiva), as previously described.[55] Enzymes including the His tag were stored at −80 °C in 20 mM Tris/HCl and 0.5 M NaCl, pH 8.0, until use. Reaction buffers were as follows: ALDH1A1 was assayed in 50 mM HEPES, 0.5 mM EDTA, and 0.5 mM DTT, pH 8.0; ALDH1A3 was assayed in 50 mM HEPES, 30 mM MgCl2, and 5 mM DTT, pH 8.0; and ALDH3A1 was assayed in 50 mM Tris–HCl and 5 mM DTT, pH 8.0. Activity under standard conditions was measured fluorimetrically at 25 °C using a Cary Eclipse (Varian) fluorimeter to follow the purification procedure and to check the enzyme concentration before each kinetic experiment. The fluorescence of NADH was characterized at 460 nm with excitation at 340 nm, and 5 μM NAD(P)H was added as an internal standard to obtain the absolute reaction rates.[55] Standard activity was measured at saturating concentrations of substrate using 30 μM hexanal (ALDH1A1), 250 μM hexanal (ALDH1A3), or 250 μM 4-NBA (ALDH3A1). NAD^+ was 500 μM for ALDH1A1 and ALDH1A3, and NADP^+ was 1 mM for ALDH3A1.
All compounds tested were dissolved in DMSO and assayed at a final concentration of 1% (v/v) DMSO. […] For the initial screening, the enzymatic activity was measured in 96-well plates (final volume of 200 μL) in a Victor 3 Multilabel Plate Reader (Perkin Elmer), by monitoring the fluorescence of the NAD(P)H produced during the reaction (excitation at 340 nm and emission at 460 nm). Alternatively, the enzymatic activity was measured in a Varian Cary 400 UV–vis spectrophotometer, by monitoring the increase in the absorbance of NAD(P)H at 340 nm (ε = 6.22 mM^–1·cm^–1) or in a Cary Eclipse Varian fluorimeter, as described above. […] For ALDH1A1, 5 μM hexanal (Sigma) was used. For ALDH1A3, 10 and 250 μM hexanal (Sigma) were used. For ALDH3A1, 4-NBA (Sigma) was used at 31 and 250 μM. All substrates were prepared in the corresponding assay buffer at a concentration of 2 mM and further diluted to reach the final concentrations required per experiment. The concentration of the enzyme was kept from 50- to 100-fold lower than that of the substrate for all enzymatic assays.

[5] = target: T1, Human ALDH1A1; assay: DEAB analogues as substrates of ALDH1A1; type: biochemical; conditions: 10 μM compound as substrate, relative to activity with 10 μM hexanal (Figure S2)
Protocol: as §2
According to their structure with a carbonyl group, compounds were tested for their substrate properties against ALDH1A1, ALDH1A3, and ALDH3A1. […] Results are expressed as the percentage of activity at 10 μM versus the activity at 10 μM of their standard substrate (hexanal or 4-NBA). Values are expressed as the mean ± SE.

[6] = target: T2, Human ALDH3A1 (Homo sapiens, UniProt P30838); assay: ALDH3A1 inhibition, IC50, Ki and type of inhibition; type: biochemical
T2 construct: made in house
T2 sequence (P30838 1-453): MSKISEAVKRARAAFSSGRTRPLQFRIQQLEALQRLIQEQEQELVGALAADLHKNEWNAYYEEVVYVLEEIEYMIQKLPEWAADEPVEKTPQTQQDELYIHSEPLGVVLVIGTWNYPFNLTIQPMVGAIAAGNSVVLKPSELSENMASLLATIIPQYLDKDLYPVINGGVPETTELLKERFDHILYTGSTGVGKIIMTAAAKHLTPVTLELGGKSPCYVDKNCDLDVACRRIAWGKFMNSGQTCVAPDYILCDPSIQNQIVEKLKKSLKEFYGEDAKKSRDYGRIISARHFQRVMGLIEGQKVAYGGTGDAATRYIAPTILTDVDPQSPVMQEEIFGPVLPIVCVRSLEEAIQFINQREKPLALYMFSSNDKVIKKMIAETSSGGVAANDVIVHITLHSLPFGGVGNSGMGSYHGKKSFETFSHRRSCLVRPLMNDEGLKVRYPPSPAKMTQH
Protocol: as §2
(§3) In order to determine the IC50 values, reaction rates were determined at various concentrations of inhibitor at a fixed concentration of substrate. As substrates for ALDH1A1, ALDH1A3, and ALDH3A1, 5 μM hexanal, 6 μM hexanal, and 31 μM 4-NBA, respectively, were used. The IC50 values were calculated by nonlinear fitting of the obtained data to a sigmoidal plot using GraFit 5.0 (Erithacus software), with the following 4-parameter equation [drawing 2] , where y is the specific activity, x is the inhibitor concentration, background is the minimum y value, range is the fitted uninhibited value minus the background, and s is the slope factor. Values are expressed as the mean ± SE.
Activity assays to determine the type of inhibition and Ki value were performed using various substrate and inhibitor concentrations maintaining the same conditions as for the IC50 experiments and using GraFit 5.0 for data processing. The data of enzymatic activities at different inhibitor concentrations were fitted to the Michaelis–Menten equation to determine the values of Km and Vmax. Next, results were fitted to the equations for competitive, given by [drawing 3]; noncompetitive, given by [drawing 4]; uncompetitive, given by [drawing 5]; and mixed, given by [drawing 6] .[56] The type of inhibition was selected based on the lowest error value. Parameters were expressed as the mean ± SE.

[7] = target: T3, Human ALDH1A3 (Homo sapiens, UniProt P47895); assay: ALDH1A3 inhibition, IC50, Ki and type of inhibition; type: biochemical; conditions: 6 μM hexanal as substrate; mean ± SE
T3 construct: made in house
T3 sequence (P47895 1-512): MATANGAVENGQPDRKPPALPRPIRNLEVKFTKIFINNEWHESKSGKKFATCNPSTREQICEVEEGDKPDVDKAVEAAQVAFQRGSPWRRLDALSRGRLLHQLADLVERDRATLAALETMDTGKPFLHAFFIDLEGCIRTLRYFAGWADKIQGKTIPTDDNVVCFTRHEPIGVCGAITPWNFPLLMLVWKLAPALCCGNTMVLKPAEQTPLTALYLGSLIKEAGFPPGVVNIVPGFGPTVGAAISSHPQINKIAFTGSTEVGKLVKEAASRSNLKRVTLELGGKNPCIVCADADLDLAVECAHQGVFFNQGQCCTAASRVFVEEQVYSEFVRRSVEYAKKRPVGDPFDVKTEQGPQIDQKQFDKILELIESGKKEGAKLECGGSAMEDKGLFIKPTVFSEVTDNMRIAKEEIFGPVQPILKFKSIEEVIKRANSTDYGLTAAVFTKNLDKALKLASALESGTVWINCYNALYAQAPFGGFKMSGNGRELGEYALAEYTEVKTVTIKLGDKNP
Protocol: Human ALDH1A1, ALDH1A3, and ALDH3A1 were cloned and recombinantly expressed from the pET-30 Xa/LIC vector. Protein purification was achieved by affinity chromatography on a nickel-charged chelating Sepharose Fast Flow 5-mL column (His Trap column, Cytiva), which specifically binds the protein due to its N-terminal (His)6 tag, using an ÄKTA FPLC system (Cytiva), as previously described.[55] Enzymes including the His tag were stored at −80 °C in 20 mM Tris/HCl and 0.5 M NaCl, pH 8.0, until use. Reaction buffers were as follows: ALDH1A1 was assayed in 50 mM HEPES, 0.5 mM EDTA, and 0.5 mM DTT, pH 8.0; […] Activity under standard conditions was measured fluorimetrically at 25 °C using a Cary Eclipse (Varian) fluorimeter to follow the purification procedure and to check the enzyme concentration before each kinetic experiment. […] In order to determine the IC50 values, reaction rates were determined at various concentrations of inhibitor at a fixed concentration of substrate. […] Values are expressed as the mean ± SE. […] The data of enzymatic activities at different inhibitor concentrations were fitted to the Michaelis–Menten equation to determine the values of Km and Vmax. Next, results were fitted to the equations for competitive, given by [drawing 3]; noncompetitive, given by [drawing 4]; uncompetitive, given by [drawing 5]; and mixed, given by [drawing 6] .[56] The type of inhibition was selected based on the lowest error value. Parameters were expressed as the mean ± SE.

[8] = target: T1, Human ALDH1A1; assay: ALDH1A1 inhibition, IC50 determination; type: biochemical; conditions: 5 μM hexanal as substrate; mean ± SE
Protocol: as §2, §3

[9] = target: T3, Human ALDH1A3; assay: Inhibition screening, single point at 10 μM, ALDH1A3; type: biochemical; conditions: 10 μM compound; hexanal as substrate (Figure S1)
Protocol: as §2, with “Reaction buffers were as follows: ALDH1A1 was assayed in 50 mM HEPES, 0.5 mM EDTA, and 0.5 mM DTT, pH 8.0; ALDH1A3 was assayed in 50 mM HEPES, 30 mM MgCl2, and 5 mM DTT, pH 8.0; and ALDH3A1 was assayed in 50 mM Tris–HCl and 5 mM DTT, pH 8.0.” left out, “NAD^+ was 500 μM for ALDH1A1 and ALDH1A3, and NADP^+ was 1 mM for ALDH3A1.” left out
All compounds tested were dissolved in DMSO and assayed at a final concentration of 1% (v/v) DMSO. […] Alternatively, the enzymatic activity was measured in a Varian Cary 400 UV–vis spectrophotometer, by monitoring the increase in the absorbance of NAD(P)H at 340 nm (ε = 6.22 mM^–1·cm^–1) or in a Cary Eclipse Varian fluorimeter, as described above. […]

IC50 [1] [µM]	IC50 [2] [µM]	IC50 [3] [µM]	remaining ALDH1A1 activity [4] [%]	ALDH1A1 substrate activity [5] [%]	IC50 ([6]; 31 μM 4-NBA as substrate, mean ± SE) [µM]	type of inhibition ALDH3A1 ([6]; 4-NBA as substrate)	Ki ([6]; 4-NBA as substrate, fit to competitive inhibition equation, mean ± SE) [µM]	IC50 [7] [µM]	IC50 [8] [µM]	remaining ALDH1A3 activity [9] [%]	Structure (SMILES)
> 200	190 ± 25	73 ± 14	12								CCCN(CCC)c1ccc(C=O)cc1 [Compound 1, 4-(Dipropylamino)benzaldehyde]
> 200	> 200	136 ± 13		69	1.29 ± 0.15	competitive	0.24 ± 0.04				CCN(CC)c1ccc(C=O)cc1[N+](=O)[O-] [Compound 19, 4-(Diethylamino)-3-Nitrobenzaldehyde]
								4.86 ± 0.81	0.88 ± 0.05		COc1cc(C=O)ccc1N1CCCC1 [Compound 29, 3-Methoxy-4-(pyrrolidin-1-yl)benzaldehyde]
										10	Cc1cc(C=O)ccc1N1CCOCC1 [Compound 27, 3-Methyl-4-morpholinobenzaldehyde]
			17					0.31 ± 0.03			O=Cc1ccc(N2CCCC2)c(Cl)c1 [Compound 12, 3-Chloro-4-(pyrrolidin-1-yl)benzaldehyde]
> 200	> 200	172 ± 8						1.15 ± 0.15	0.8 ± 0.16		Cc1cc(C=O)ccc1N1CCCC1 [Compound 26, 3-Methyl-4-(pyrrolidin-1-yl)benzaldehyde]
166 ± 41	123 ± 12	47 ± 0.6	24	~60				10.7 ± 1.3			CCN(CC)c1ccc(C=O)cc1Br [Compound 13, 3-Bromo-4-(diethylamino)benzaldehyde]

Reference: article PMC9007462 (Journal of Medicinal Chemistry, 2022)
